Test [1] relates to HepG2 (human hepatocellular carcinoma). Description: MTT cytotoxicity assay, HepG2. The test is classed as cell-based. Particulars: Homo sapiens, HepG2; MTT, 72 h treatment; read-out: Half Maximal Inhibitory Concentration (IC50) HepG2. The essentials:
(§1)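 Cells seeded at 3 × 10^3/well in DMEM/10% FBS, then treated 72 h with 3.125–50 μM compound in DMSO. MTT (5 mg/mL) added for 4 h, formazan dissolved in DMSO, absorbance read at 490 nm; inhibition relative to untreated control, IC50 as 50% growth inhibition, triplicate runs.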

The subject of test [2] is MDCK (Madin–Darby canine kidney) cells. Put plainly: MTT toxicity evaluation, MDCK. Format: cell-based. The following applies: Canis lupus familiaris, MDCK, 72 h treatment, non-tumor cells, read-out: Half Maximal Inhibitory Concentration (IC50) MDCK. In outline:
as §1

Test [3] relates to A549 cells. Put plainly: DAPI staining, nuclear morphology. Particulars: 6 μM, 72 h. The test is classed as cell-based, human. How it is done:
As pictured in Figure 6, in the control group, the nucleus was intact and evenly colored. […] When the concentration of the drug increased, nuclear condensation, nuclear fragmentation, and the formation of apoptotic bodies appeared.
A549 cells in the logarithmic growth phase were seeded in 12-well plates (1.2 × 10^4 cells/well). After incubation for 24 h at 37 °C with 5% CO2, various concentrations (0, 2, 4, or 6 μM) of compound 9 were added to the cultures, and the plate was incubated for further 72 h. Then, we discarded the cell culture fluid, washed twice with PBS, and fixed the cells with 4% paraformaldehyde for 10 min. After that, we added the appropriate amount of DAPI (1 mg/mL; Molecular Probes/Invitrogen Life Technologies, Carlsbad, CA, USA) to cover the bottom of the board, after staining for 5 min in the dark.

In test [4] the test system is A549 cells. Description: Annexin V-FITC/PI staining, flow cytometry. Format: cell-based, human. Particulars: 72 h. Here is the method: To further depict the apoptosis induced by compound 9, apoptotic rates were analyzed by flow cytometry using Annexin V-FITC/PI staining.
According to instructions, A549 cells were stained with an annexin-V FITC apoptosis detection kit (Beijing BioDee Biotech. Co., Ltd., Beijing, China). A549 cells in the logarithmic growth phase were seeded in six-well plates (4.8 × 10^4 cells/well). After incubation for 24 h at 37 °C with 5% CO2, various concentrations (0, 2, 5, or 10 μM) of compound 9 were added to the cultures, and the plate was incubated for a further 72 h. A549 cells were collected, washed twice with cold PBS, and centrifuged at 2400 rpm for 10 min. The resulting pellet was mixed with 200 μL of binding buffer of the Annexin V-FITC kit; then, 5 μL of FITC-labeled annexin V was added and mixed gently. After incubation at 4 °C for 10 min in the dark, 5 μL of PI was added. Then, the cells were immediately analyzed with a flow cytometer at 488 nm.
(Flow cytometry measures light scatter and fluorescence of single cells or particles in a stream.)

In test [5] the test system is HepG2, A549, MCF-7, H9c2, and MDCK cells. Put plainly: MTT assay, panel of five cell lines (summary in discussion). Format: cell-based. The following applies: read-out: IC50 values ranging (cell lines not specified). How it is done:
A series of different esters of He were designed and synthesized. All these compounds were screened for cytotoxic activity employing a panel of five cell lines, including HepG2, A549, MCF-7, H9c2, and MDCK cells, using the MTT assay. […] Further intensive modifications at C-23 and studies are currently being performed in our research group, and the results will be reported in due course.
The antitumor activity of these compounds were evaluated on MCF-7, A549, HepG2, MDCK, and H9c2 cell lines using the MTT assay. Cells at a density of 3 × 10^3 cells/well were plated in a 96-multiwell plate in DMEM containing 10% FBS for 24 h at 37 °C with 5% CO2. Then, cells were treated for 72 h with the required concentrations (3.125, 6.25, 12.5, 25, or 50 μM) of the compounds and reference drugs (He and DDP) dissolved with the vehicle DMSO. After that, the culture substrate was replaced with 200 μL of DMEM containing 20 μL of MTT solution at 5 mg/mL and incubated for 4 h. The supernatant was removed and the dissolved formazans precipitated with 120 μL of DMSO. Wells without drugs were used as blanks. A plate reader was used to determine the absorbance at 490 nm. The above steps were repeated three times. The IC50 values were defined as the concentration of the compound which gave 50% growth inhibition, and they were calculated using Graph Pad Prism 5. […]
In general terms: Formazan colour is commonly taken as a measure of viable cells.

In test [6] the test system is MCF-7 (human mammary cancer). Put plainly: MTT cytotoxicity assay, MCF-7. The test is classed as cell-based. Particulars: Homo sapiens, MCF7, 72 h treatment, read-out: Half Maximal Inhibitory Concentration (IC50) MCF-7. The essentials:
as §1

Test [7] concerns H9c2 (murine heart myoblast). Put plainly: MTT toxicity evaluation, H9c2. Format: cell-based. Particulars: H9c2, 72 h treatment, non-tumor cells, read-out: Half Maximal Inhibitory Concentration (IC50) H9c2. In outline:
as §1

SMILES strings stand for the structures.

Take `Cc1cncc(C(=O)OCCOC(=O)[C@]23CCC(C)(C)CC2C2=CCC4[C@@]5(C)CC[C@H](O)[C@@](C)(CO)C5CC[C@@]4(C)[C@]2(C)CC3)n1` (stereo partly drawn) [Compound 9, 2-(((4aS,6aS,6bR,9R,10S,12aR)-10-Hydroxy-9-(hydroxymethyl)-2,2,6a,6b,9,12a-hexamethyl-1,2,3,4,4a,5,6,6a,6b,7,8,8a,9,10,11,12,12a,12b,13,14b-icosahydropicene-4a-carbonyl)oxy)ethyl-6-methylpyrazine-2-carboxylate]: the IC50 in test [1] is 8.71 ± 0.38 µM; in test [2] it was 14.11 ± 0.04 µM; in test [5] it was 3.22 to 4.48 µM; in test [6], 8.73 ± 1.49 µM; in test [7] it was 16.69 ± 0.12 µM. Moreover, in test [3], the “nuclear morphology, DAPI staining” value is “the number of cells decreased drastically, the shape of the cells became irregular, and nuclear fragmentation occurred”. Also, the “percentage of apoptotic cells (early and late apoptosis)” value came out at 17.4% in test [4] (2 μM), 72.0% in test [4] (5 μM) and 91.5% in test [4] (10 μM).

For the origin of these results see article PMC6213900, “Design, Synthesis, and Cytotoxic Analysis of Novel Hederagenin–Pyrazine Derivatives Based on Partial Least Squares Discriminant Analysis” (International Journal of Molecular Sciences, 2018).
